Results published in patent publication US20250228239A1, “MOLECULES HAVING PESTICIDAL UTILITY, AND INTERMEDIATES, COMPOSITIONS, AND PROCESSES, RELATED THERETO” (priority 2024, published 2025).
Read-outs that look alike come from different tables or passages of the source.

Key:
Assay type in all cases: in vivo
[1] = test system: Cabbage Looper (Trichoplusia ni, TRIPNI); test: Bioassays on Cabbage Looper (CL), 128-well diet tray assay; settings: Trichoplusia ni, read-out: CL
In short: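 Test molecule was dissolved in 90:10 acetone-water, applied to artificial diet at 50 μg/cm^2 and allowed to dry. Second-instar larvae were then added, one to five per well, and trays held at 25° C for five to seven days before mortality was scored and averaged.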

[2] = test system: Beet Armyworm (Spodoptera exigua, LAPHEG); test: Bioassays on Beet Armyworm (BAW), 128-well diet tray assay; settings: Spodoptera exigua, read-out: BAW
In short: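 Percent larval mortality, averaged across eight wells, scored after five to seven days at 25° C. under 14:10 light-dark. Each well held one to five second instars feeding on diet dosed at 50 μg/cm^2 with compound from 90:10 acetone-water, solvent dried off.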

[3] = test system: Yellow Fever Mosquito (Aedes aegypti, AEDSAE)
In short: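 Compounds from 4000 ppm DMSO stocks were diluted in 90:10 water/acetone and dispensed into wells, then infested with about 1-day-old larvae in liver-powder water. Covered plates were held at room temperature for 3 days and each well was scored for mortality against a rating scale; six replicate plates per compound.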

[4] = Table ABC: Biological Results, species CL
[5] = Table ABC: Biological Results, species BAW
[6] = Table ABC: Biological Results, species YFM
[7] = Yellow Fever Mosquito, rating class

SMILES	pest or weed control at 50 µg/cm2 [1, 4]	pest or weed control at 50 µg/cm2 [2, 5]	YFM [3, 6]	pest or weed control at 50 µg/cm2 ([1]; Cabbage Looper, rating class)	pest or weed control at 50 µg/cm2 ([2]; Beet Armyworm, rating class)	YFM [3, 7]
C=C(F)c1ccc(NC(=O)c2cc(NC(=O)[C@H]3[C@H](c4cc(Cl)cc(Cl)c4)C3(Cl)Cl)ccc2Cl)c(F)c1 (relative stereo) [F1320, trans-2-Chloro-5-(2,2-dichloro-3-(3,5-dichlorophenyl)cyclopropane-1-carboxamido)-N-(2-fluoro-4-(1-fluorovinyl)phenyl)benzamide]	50 to 100%	50 to 100%	A (80–100)	–	–	–
C=C(F)c1c(F)ccc(NC(=O)c2cc(NC(=O)[C@H]3[C@H](c4cc(Cl)cc(Cl)c4)C3(Cl)Cl)ccc2Cl)c1F (relative stereo) [F1321, trans-2-Chloro-5-(2,2-dichloro-3-(3,5-dichlorophenyl)cyclopropane-1-carboxamido)-N-(2,4-difluoro-3-(1-fluorovinyl)phenyl)benzamide]	50 to 100%	50 to 100%	A (80–100)	–	–	–
C=C(F)c1cc(NC(=O)c2cc(NC(=O)[C@H]3[C@H](c4cc(Cl)cc(Cl)c4)C3(Cl)Cl)ccc2Cl)cc(F)c1F (relative stereo) [F1323, trans-2-Chloro-5-(2,2-dichloro-3-(3,5-dichlorophenyl)cyclopropane-1-carboxamido)-N-(3,4-difluoro-5-(1-fluorovinyl)phenyl)benzamide]	50 to 100%	50 to 100%	A (80–100)	–	–	–
Cc1cc(NCc2ccc(O)cc2)ccc1NC(=O)c1cc(NC(=O)[C@H]2[C@H](c3cc(Cl)cc(Cl)c3)C2(Cl)Cl)ccc1Cl (relative stereo) [F1353, trans-2-Chloro-5-(2,2-dichloro-3-(3,5-dichlorophenyl)cyclopropane-1-carboxamido)-N-(4-((4-hydroxybenzyl)amino)-2-methylphenyl)benzamide]	50 to 100%	50 to 100%	A (80–100)	–	–	–
O=C(Nc1ccc(F)c(NC(=O)C(F)(F)F)c1F)c1cc(NC(=O)[C@H]2[C@H](c3ccc(Cl)c(Br)c3)C2(Cl)Cl)ccc1Cl (relative stereo) [F1358, trans-5-(3-(3-Bromo-4-chlorophenyl)-2,2-dichlorocyclopropane-1-carboxamido)-2-chloro-N-(2,4-difluoro-3-(2,2,2-trifluoroacetamido)phenyl)benzamide]	50 to 100%	50 to 100%	A (80–100)	–	–	–
O=C(Nc1ccc(F)c(NC(=O)C(F)F)c1F)c1cc(NC(=O)[C@H]2[C@H](c3ccc(Cl)c(Br)c3)C2(Cl)Cl)ccc1Cl (relative stereo) [F1359, trans-5-(3-(3-Bromo-4-chlorophenyl)-2,2-dichlorocyclopropane-1-carboxamido)-2-chloro-N-(3-(2,2-difluoroacetamido)-2,4-difluorophenyl)benzamide]	50 to 100%	50 to 100%	A (80–100)	–	–	–
Nc1cc(NC(=O)c2cc(NC(=O)[C@H]3[C@H](c4ccc(F)c(Cl)c4)C3(Cl)Cl)ccc2Cl)ccc1Cl (relative stereo) [F1365, trans-N-(3-Amino-4-chlorophenyl)-2-chloro-5-(2,2-dichloro-3-(3-chloro-4-fluorophenyl)cyclopropane-1-carboxamido)benzamide]	50 to 100%	50 to 100%	A (80–100)	–	–	–
O=C(Nc1cc(Cl)c(NC(=O)C(F)(F)F)c(Cl)c1)c1cc(NC(=O)[C@H]2[C@H](c3ccc(F)c(Cl)c3)C2(Cl)Cl)ccc1Cl (relative stereo) [F1368, trans-2-Chloro-5-(2,2-dichloro-3-(3-chloro-4-fluorophenyl)cyclopropane-1-carboxamido)-N-(3,5-dichloro-4-(2,2,2-trifluoroacetamido)phenyl)benzamide]	50 to 100%	50 to 100%	A (80–100)	–	–	–
Nc1ccc(NC(=O)c2cc(NC(=O)[C@H]3[C@H](c4ccc(F)c(Cl)c4)C3(Cl)Cl)ccc2Cl)cc1Cl (relative stereo) [F1370, trans-N-(4-Amino-3-chlorophenyl)-2-chloro-5-(2,2-dichloro-3-(3-chloro-4-fluorophenyl)cyclopropane-1-carboxamido)benzamide]	50 to 100%	50 to 100%	A (80–100)	–	–	–
O=C(Nc1ccc(NC(=O)C(F)(F)F)c(Cl)c1)c1cc(NC(=O)[C@H]2[C@H](c3ccc(F)c(Cl)c3)C2(Cl)Cl)ccc1Cl (relative stereo) [F1384, trans-2-Chloro-N-(3-chloro-4-(2,2,2-trifluoroacetamido)phenyl)-5-(2,2-dichloro-3-(3-chloro-4-fluorophenyl)cyclopropane-1-carboxamido)benzamide]	50 to 100%	50 to 100%	A (80–100)	–	–	–
N#Cc1cc(NC(=O)c2cc(NC(=O)[C@H]3[C@H](c4ccc(F)c(Cl)c4)C3(Cl)Cl)ccc2Cl)ccc1N (relative stereo) [F1387, trans-N-(4-Amino-3-cyanophenyl)-2-chloro-5-(2,2-dichloro-3-(3-chloro-4-fluorophenyl)cyclopropane-1-carboxamido)benzamide]	50 to 100%	50 to 100%	A (80–100)	–	–	–
Nc1ccc(NC(=O)c2cc(NC(=O)[C@H]3[C@H](c4ccc(F)c(Cl)c4)C3(Cl)Cl)ccc2Cl)cc1C(F)(F)F (relative stereo) [F1390, trans-N-(4-Amino-3-(trifluoromethyl)phenyl)-2-chloro-5-(2,2-dichloro-3-(3-chloro-4-fluorophenyl)cyclopropane-1-carboxamido)benzamide]	50 to 100%	50 to 100%	A (80–100)	–	–	–
O=C(Nc1ccc(NC(=O)C(F)(F)F)c(C(F)(F)F)c1)c1cc(NC(=O)[C@H]2[C@H](c3ccc(F)c(Cl)c3)C2(Cl)Cl)ccc1Cl (relative stereo) [F1393, trans-2-Chloro-5-(2,2-dichloro-3-(3-chloro-4-fluorophenyl)cyclopropane-1-carboxamido)-N-(4-(2,2,2-trifluoroacetamido)-3-(trifluoromethyl)phenyl)benzamide]	–	–	–	50 to 100%	50 to 100%	A (80–100)
Nc1c(F)ccc(NC(=O)c2cc(NC(=O)[C@H]3[C@H](c4ccc(Br)cc4)C3(Cl)Cl)ccc2Cl)c1F (relative stereo) [F1591, trans-N-(3-Amino-2,4-difluorophenyl)-5-(3-(4-bromophenyl)-2,2-dichlorocyclopropane-1-carboxamido)-2-chlorobenzamide]	–	–	–	50 to 100%	50 to 100%	A (80–100)
Nc1c(F)ccc(NC(=O)c2cc(NC(=O)[C@H]3[C@H](c4ccc(F)cc4)C3(Cl)Cl)ccc2Cl)c1F (relative stereo) [F1592, trans-N-(3-Amino-2,4-difluorophenyl)-2-chloro-5-(2,2-dichloro-3-(4-fluorophenyl)cyclopropane-1-carboxamido)benzamide]	–	–	–	50 to 100%	50 to 100%	A (80–100)
Nc1c(F)ccc(NC(=O)c2cc(NC(=O)[C@H]3[C@H](c4cccc(Br)c4)C3(Cl)Cl)ccc2Cl)c1F (relative stereo) [F1594, trans-N-(3-Amino-2,4-difluorophenyl)-5-(3-(3-bromophenyl)-2,2-dichlorocyclopropane-1-carboxamido)-2-chlorobenzamide]	–	–	–	50 to 100%	50 to 100%	A (80–100)
Nc1c(F)ccc(NC(=O)c2cc(NC(=O)[C@H]3[C@H](c4cccc(Cl)c4)C3(Cl)Cl)ccc2Cl)c1F (relative stereo) [F1595, trans-N-(3-Amino-2,4-difluorophenyl)-2-chloro-5-(2,2-dichloro-3-(3-chlorophenyl)cyclopropane-1-carboxamido)benzamide]	–	–	–	50 to 100%	50 to 100%	A (80–100)
Nc1c(F)ccc(NC(=O)c2cc(NC(=O)[C@H]3[C@H](c4cccc(F)c4)C3(Cl)Cl)ccc2Cl)c1F (relative stereo) [F1596, trans-N-(3-Amino-2,4-difluorophenyl)-2-chloro-5-(2,2-dichloro-3-(3-fluorophenyl)cyclopropane-1-carboxamido)benzamide]	–	–	–	50 to 100%	50 to 100%	A (80–100)
O=C(Nc1ccc(F)c(NC(=O)C(F)F)c1F)c1cc(NC(=O)[C@H]2[C@H](c3ccc(Br)cc3)C2(Cl)Cl)ccc1Cl (relative stereo) [F1597, trans-5-(3-(4-Bromophenyl)-2,2-dichlorocyclopropane-1-carboxamido)-2-chloro-N-(3-(2,2-difluoroacetamido)-2,4-difluorophenyl)benzamide]	–	–	–	50 to 100%	50 to 100%	A (80–100)
O=C(Nc1ccc(F)c(NC(=O)C(F)F)c1F)c1cc(NC(=O)[C@H]2[C@H](c3ccc(Cl)cc3)C2(Cl)Cl)ccc1Cl (relative stereo) [F1599, trans-2-Chloro-5-(2,2-dichloro-3-(4-chlorophenyl)cyclopropane-1-carboxamido)-N-(3-(2,2-difluoroacetamido)-2,4-difluorophenyl)benzamide]	–	–	–	50 to 100%	50 to 100%	A (80–100)
